From ChEMBL document CHEMBL3872238, “Selectivity switch between FAK and Pyk2: Macrocyclization of FAK inhibitors improves Pyk2 potency” (Bioorg Med Chem Lett, 2016)
≈ marks a conversion by molar mass, not a printed value.

Tests used:
[1] = Kinetic solubility of compound at pH 7; assay type: physicochemical; settings: buffer, read-out: Kinetic_solubility
[2] = Half life in human liver microsomes; assay type: ADME
[3] = Permeability from apical side to basolateral side in human Caco2 cells; assay type: ADME, cell-based; settings: Caco-2, read-out: permeability
[4] = Permeability from basolateral side to apical side in human Caco2 cells; assay type: ADME, cell-based; settings: Caco-2, read-out: permeability
[5] = Half life in mouse liver microsomes; assay type: ADME
[6] = Half life in dog liver microsomes; assay type: ADME, Canis lupus familiaris

Row | SMILES | solubility kinetic [1] | half-life [2] | Papp A→B [3] | Papp B→A [4] | half-life [5] | half-life [6]
1 | CN1Cc2ccncc2N(S(C)(=O)=O)C/C=C/c2cc(ccc2N2CCOCC2)Nc2ncc(C(F)(F)F)c1n2 | 3 µM (≈ 1.73 µg/mL) | 263 min | – | – | – | –
2 | CN(c1ncccc1CNc1nc(Nc2ccc3c(c2)CC(=O)N3)ncc1C(F)(F)F)S(C)(=O)=O [PF-00562271] | – | – | 11 ×10⁻⁶ cm/s | 29 ×10⁻⁶ cm/s | – | –
3 | CN1Cc2ccccc2N(S(C)(=O)=O)CCCCC(=O)N2CCc3cc(ccc32)Nc2ncc(C(F)(F)F)c1n2 | < 1.6 µM | < 60 min | – | – | < 60 min | < 60 min
4 | CCS(=O)(=O)N1CCCCC(=O)N2CCc3cc(ccc32)Nc2ncc(C(F)(F)F)c(n2)NCc2ccccc21 | < 1.6 µM | < 60 min | – | – | < 60 min | < 60 min
5 | CS(=O)(=O)N1CCCCC(=O)N2CCc3cc(ccc32)Nc2ncc(C(F)(F)F)c(n2)NCc2ccccc21 | < 1.6 µM | < 60 min | – | – | < 60 min | < 60 min

The next lines start with the values.

Row | solubility kinetic [1] | half-life [2] | Papp A→B [3] | Papp B→A [4] | half-life [5] | half-life [6] | SMILES
6 | 1 µM (≈ 0.576 µg/mL) | – | – | – | – | – | CN1Cc2cccnc2N(S(C)(=O)=O)C/C=C/c2cc(ccc2N2CCOCC2)Nc2ncc(C(F)(F)F)c1n2
7 | 0.3 µM (≈ 0.143 µg/mL) | – | – | – | – | – | CS(=O)(=O)N1C/C=C/c2cccc(c2)Nc2ncc(C(F)(F)F)c(n2)NCc2cccnc21
8 | – | < 60 min | 30 ×10⁻⁶ cm/s | 32 ×10⁻⁶ cm/s | < 60 min | < 60 min | CS(=O)(=O)N1CCCCC(=O)N2CCc3cc(ccc32)Nc2ncc(C(F)(F)F)c(n2)NCc2cccnc21
